Some test systems named below: XF498; DMS-273; LXFL 529; HOP-18; KM-20L2; M19-MEL; RXF 631; T47D; Hs-578T.
What all share (assay): inhibition of tumour cell growth, NCI panel, 48 h

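Dose response: 5 concentrations. Exposure: 48 h. Format: 96-well plates. Endpoint: linear interpolation; highest concentration if not reached. Here, GI50 denotes the concentration required for 50% inhibition of growth.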 Activity calls are given as the source filed them. Rule as the data show it: active = GI50 up to about 1.1 µM and inactive = higher.

As to `COc1ccc(OC(C)=O)c2c1CCC=CC2=O`, the GI50 with XF498 was 17.3 µM (inactive); with DMS-273 it was 16.6 µM (inactive); with LXFL 529, 9.57 µM (inactive).
On to `O=c1[nH]c(Br)nc2c(N3CCCCC3)c[nH]c12`, for which the GI50 in the experiment on HOP-18, with KM-20L2, in the experiment with XF498, in the experiment on M19-MEL, with DMS-273 and in the experiment on LXFL 529 was > 100 µM (inactive) each time.
Regarding `COc1cc(Cl)c2c3c(c(C(C)=O)oc13)CCC2`, the GI50 in the experiment on HOP-18, in the experiment on KM-20L2, with M19-MEL, in the experiment with DMS-273, with LXFL 529 and with RXF 631 was > 100 µM (inactive) in each case.
For the molecule `CC(C)C1N2CCCCC2[C@@H]2c3[nH]c4ccccc4c3CCN12` (stereo partly drawn), the GI50 in the experiment with HOP-18, in the experiment with KM-20L2, in the experiment with XF498, in the experiment on M19-MEL, in the experiment with DMS-273 and with LXFL 529 was > 100 µM (inactive) throughout.
Consider `COc1cc(/C=C\c2ccc(Br)cc2)cc(OC)c1OC`, for which the GI50 is 0.000721 µM (active) in the experiment with HOP-18; 0.00033 µM (active) in the experiment with KM-20L2; 0.000678 µM (active) with XF498; 0.00524 µM (active) with M19-MEL; 0.00332 µM (active) in the experiment with DMS-273; 0.000891 µM (active) with LXFL 529. In addition, the GI50 in the experiment on RXF 631 is 0.01 µM (active).
Regarding `CC(O)C(NC(=O)C(CS)NC(=O)C(CO)NC(=O)C(CCCCN)NC(=O)C(Cc1c[nH]c2ccccc12)NC(=O)C(Cc1ccc(O)cc1)NC(=O)C(CS)NC(=O)C(N)Cc1ccccc1)C(N)=O` (stereo not drawn), the GI50 was 22.6 µM (inactive) in the experiment on HOP-18; 23.9 µM (inactive) in the experiment with KM-20L2; > 25 µM (inactive) with T47D; 21.6 µM (inactive) in the experiment with XF498; > 25 µM (inactive) in the experiment on Hs-578T; 26 µM (inactive) with M19-MEL. Moreover, the GI50 in the experiment on DMS-273 is 20.9 µM (inactive); in the experiment with RXF 631, 19.1 µM (inactive).
Turning to `CC(=O)NC(CCCCN(Cc1ccccc1)C(=O)N(C)N=O)C(=O)NCc1ccccc1` (stereo not drawn), the GI50 with KM-20L2 was > 100 µM (inactive); in the experiment on XF498, > 100 µM (inactive); in the experiment on M19-MEL it was > 100 µM (inactive); with DMS-273, 97.3 µM (inactive); in the experiment on LXFL 529 it was 51.5 µM (inactive); in the experiment with RXF 631, > 100 µM (inactive).
Consider `CC1=C(O)C(=O)C2C(=O)C1C(C)C2c1ccc(C)cc1` (stereo not drawn), for which the GI50 is 3.06 µM (inactive) with KM-20L2; > 100 µM (inactive) in the experiment on XF498; > 100 µM (inactive) in the experiment with M19-MEL; > 100 µM (inactive) with DMS-273; > 100 µM (inactive) with LXFL 529.
As to `Cc1ccccc1N(CC(=O)O)S(=O)(=O)c1ccccc1`, the GI50 with HOP-18, with KM-20L2, in the experiment on XF498, in the experiment with M19-MEL, in the experiment with DMS-273 and in the experiment with LXFL 529 was > 100 µM (inactive) throughout.
As to `CC[C@@H](C(=O)[C@@H](C)[C@@H](O)[C@H](C)CCc1ccc(C)c(O)c1C(=O)O)[C@H]1O[C@](CC)([C@H]2CC[C@](O)(CC)[C@H](C)O2)C[C@@H]1C` [LASALOCID A SODIUM], the GI50 is 3.08 µM (inactive) in the experiment with HOP-18; 1.78 µM (inactive) with KM-20L2; 1.25 µM (inactive) in the experiment on XF498; 1.65 µM (inactive) in the experiment on M19-MEL; 1.71 µM (inactive) in the experiment with DMS-273; 1.18 µM (inactive) in the experiment with LXFL 529. In addition, the GI50 with RXF 631 was 0.741 µM (active).
In the case of `O=C(Cc1nc2ccccc2o1)C(=O)Nc1cccc(C(F)(F)F)c1`, the GI50 is 45 µM (inactive) in the experiment on HOP-18; > 100 µM (inactive) in the experiment with KM-20L2; > 100 µM (inactive) in the experiment on M19-MEL; > 100 µM (inactive) in the experiment on DMS-273; > 100 µM (inactive) in the experiment on LXFL 529; > 100 µM (inactive) with RXF 631.
On to `CCOc1ccccc1NC(=O)/C=C1\NC(=O)CS1`, for which the GI50 in the experiment with HOP-18 was 98.2 µM (inactive); with KM-20L2, > 100 µM (inactive); with XF498, > 100 µM (inactive); in the experiment with M19-MEL, > 100 µM (inactive); with DMS-273, > 100 µM (inactive); with LXFL 529, > 100 µM (inactive).
`C[C@]12CC[C@H](OC(=O)Nc3ccccc3)CC1=CC[C@@H]1C2CC[C@]2(C)/C(=N/OC(=O)Nc3ccccc3)CCC12` (stereo partly drawn): the GI50 in the experiment on HOP-18 was 2.4 µM (inactive); with KM-20L2, 3.2 µM (inactive); with XF498 it was 1.75 µM (inactive); in the experiment with M19-MEL, > 100 µM (inactive); in the experiment with DMS-273 it was 37.3 µM (inactive); in the experiment on LXFL 529 it was 1.12 µM (inactive). Further, in the experiment with RXF 631, the GI50 is 6.37 µM (inactive).
In the case of `O=c1[nH]c2cc(-c3ccccc3)nc-2nn1-c1c(Cl)cc(Cl)cc1Cl`, the GI50 in the experiment on HOP-18 was 18.8 µM (inactive); in the experiment with KM-20L2, 25.8 µM (inactive); in the experiment on XF498, 27.9 µM (inactive); in the experiment on M19-MEL it was 22.8 µM (inactive); in the experiment with DMS-273 it was 37.3 µM (inactive); with LXFL 529, 30.5 µM (inactive). For the same molecule, the GI50 in the experiment with RXF 631 is 46 µM (inactive).
As for `CCc1cccc(C(C)C)c1NC(=O)C(=O)C(CC(=O)Nc1ccc(Cl)c(Cl)c1)C(=O)OC` (stereo not drawn), the GI50 is 99.5 µM (inactive) in the experiment on HOP-18; 26.2 µM (inactive) in the experiment with KM-20L2; > 100 µM (inactive) in the experiment with XF498; 52.5 µM (inactive) with M19-MEL; 49.4 µM (inactive) with DMS-273; > 100 µM (inactive) in the experiment on RXF 631.
As to `C=C=C(C(=O)OC)[S+]([O-])c1ccccc1[N+](=O)[O-]` (stereo not drawn), the GI50 in the experiment on HOP-18, with KM-20L2, in the experiment with XF498, in the experiment on M19-MEL, in the experiment with DMS-273 and in the experiment on LXFL 529 was > 100 µM (inactive) in each case.
`COc1ccc2c(c1)[n+]([O-])c(-c1nc3ccccc3s1)c(N)[n+]2[O-]`: the GI50 was > 100 µM (inactive) in the experiment on HOP-18; > 100 µM (inactive) in the experiment with KM-20L2; 49.7 µM (inactive) with M19-MEL; > 100 µM (inactive) in the experiment with DMS-273; 58.1 µM (inactive) with LXFL 529; 88.5 µM (inactive) with RXF 631.
On to `N=C(N)N/N=C(/CC1OC(=O)c2ccccc21)c1ccc2ccccc2c1` (stereo not drawn), for which the GI50 in the experiment with HOP-18 was 18.5 µM (inactive); in the experiment on KM-20L2, 24.7 µM (inactive); in the experiment on XF498, 7.71 µM (inactive); with M19-MEL, 16.2 µM (inactive); in the experiment with DMS-273, 21.6 µM (inactive); in the experiment with LXFL 529 it was 14.6 µM (inactive). Besides, in the experiment with RXF 631, the GI50 was 21.4 µM (inactive).
Take `CCc1cccc(C(C)C)c1NC(=O)CC1Sc2ccccc2NC1=O` (stereo not drawn): the GI50 was > 100 µM (inactive) in the experiment with HOP-18; 53.6 µM (inactive) in the experiment on XF498; 40.6 µM (inactive) with M19-MEL; 34 µM (inactive) with DMS-273; 43.5 µM (inactive) in the experiment with LXFL 529.
As for `COC(=O)Cc1nn2c(nc1=O)sc1ccc3ccccc3c12`, the GI50 in the experiment on HOP-18 was > 100 µM (inactive); with KM-20L2 it was > 100 µM (inactive); in the experiment with M19-MEL it was > 100 µM (inactive); in the experiment with LXFL 529, > 100 µM (inactive); in the experiment on RXF 631, 91.6 µM (inactive).
In the case of `CC(=O)CCCCO`, the GI50 in the experiment with XF498, in the experiment with M19-MEL, with DMS-273 and in the experiment with LXFL 529 was > 100 µM (inactive) in each case.
As to `COC1(OC)CC2C=C(S(=O)(=O)c3ccccc3)C1N(Cc1ccccc1)C2=O` (stereo not drawn), the GI50 in the experiment with HOP-18 is > 100 µM (inactive); with KM-20L2, 28.9 µM (inactive); in the experiment on XF498, 19.1 µM (inactive); in the experiment with M19-MEL it was 32.4 µM (inactive); in the experiment on LXFL 529, 20.3 µM (inactive); in the experiment with RXF 631, 26.3 µM (inactive).
`O=C1C=CC2(C=C1)C[C@H](NC(=O)C(F)(F)F)C(=O)O2`: the GI50 was > 100 µM (inactive) in the experiment on KM-20L2, 23.6 µM (inactive) with M19-MEL and 23.7 µM (inactive) in the experiment on LXFL 529.
Consider `COc1ccc(/C=c2\sc3nnc(CCC(=O)Nc4cccc(C(F)(F)F)c4)n3c2=O)cc1`, for which the GI50 in the experiment on HOP-18 is 50.4 µM (inactive); in the experiment on KM-20L2, > 100 µM (inactive); with XF498, > 100 µM (inactive); in the experiment with M19-MEL, > 84.1 µM (inactive); in the experiment with DMS-273, > 100 µM (inactive); with LXFL 529, > 87.1 µM (inactive). Also, the GI50 with RXF 631 is > 100 µM (inactive).
In the case of `C=CCNC(=O)N(CCCC(NC(C)=O)C(=O)NCc1ccccc1)Cc1ccccc1` (stereo not drawn), the GI50 with HOP-18, in the experiment with KM-20L2, in the experiment with XF498, in the experiment with M19-MEL, in the experiment on DMS-273 and with LXFL 529 was > 100 µM (inactive) each time.
Consider `N#CC(/C(=N/NC(=O)C(=O)NN)C(=O)NC12CC3CC(CC(C3)C1)C2)c1ccccc1` (stereo not drawn), for which the GI50 in the experiment on HOP-18, with KM-20L2, in the experiment with M19-MEL, in the experiment with DMS-273, in the experiment on LXFL 529 and with RXF 631 was > 100 µM (inactive) throughout.
With `O=C(CSc1nc(=O)c(-c2ccccc2NC(=O)C(F)(F)F)n[nH]1)NC(=O)Nc1ccccc1`, the GI50 was > 100 µM (inactive) in the experiment on XF498, > 100 µM (inactive) with M19-MEL, 90.8 µM (inactive) in the experiment on DMS-273 and 79.6 µM (inactive) in the experiment on LXFL 529.
Turning to `COc1cc(-c2cc(=O)c3c(O)c(OC)c(OC)c(OC)c3o2)ccc1O`, the GI50 with HOP-18 is 32.4 µM (inactive); in the experiment with KM-20L2 it was 40.2 µM (inactive); with M19-MEL, 22.8 µM (inactive); with DMS-273, 5.08 µM (inactive); in the experiment with LXFL 529, 16.6 µM (inactive).
Consider `COCCCNC(=O)C1C(=O)C(=O)N(CCCOC)C1=O` (stereo not drawn), for which the GI50 in the experiment with HOP-18, in the experiment with KM-20L2, in the experiment with M19-MEL, in the experiment with DMS-273, in the experiment with LXFL 529 and with RXF 631 was > 100 µM (inactive) throughout.

These data come from ChEMBL document CHEMBL1201862, “PubChem BioAssay data set” (2004).
